The target of one assay is T1, Caspase-1 (Mus musculus) (UniProt P29452).
T1 sequence (whole entry): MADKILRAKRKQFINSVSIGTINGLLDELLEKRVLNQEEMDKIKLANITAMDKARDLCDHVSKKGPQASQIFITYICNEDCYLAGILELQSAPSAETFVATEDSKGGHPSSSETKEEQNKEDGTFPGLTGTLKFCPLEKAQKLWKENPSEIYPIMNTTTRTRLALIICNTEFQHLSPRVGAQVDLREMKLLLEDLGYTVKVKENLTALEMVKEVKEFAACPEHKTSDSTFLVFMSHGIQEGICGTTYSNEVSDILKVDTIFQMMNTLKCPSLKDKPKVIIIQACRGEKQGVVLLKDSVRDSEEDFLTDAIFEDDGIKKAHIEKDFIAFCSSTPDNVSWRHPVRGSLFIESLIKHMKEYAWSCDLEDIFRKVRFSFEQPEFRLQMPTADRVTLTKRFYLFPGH
Briefly: Inhibition of mouse recombinant ICE assessed as ratio of irreversible rate constant K3 to dissociation constant of the reversible binding step Ki pre-incubated for 60 mins with Acetyl-Tyr-Val-Ala-Asp-amino-4-methylcoumarin substrate followed by enzyme addition by fluorescence based assay.

Another assay addresses T2, Caspase-3 (Homo sapiens) (UniProt P42574).
T2 sequence (whole entry): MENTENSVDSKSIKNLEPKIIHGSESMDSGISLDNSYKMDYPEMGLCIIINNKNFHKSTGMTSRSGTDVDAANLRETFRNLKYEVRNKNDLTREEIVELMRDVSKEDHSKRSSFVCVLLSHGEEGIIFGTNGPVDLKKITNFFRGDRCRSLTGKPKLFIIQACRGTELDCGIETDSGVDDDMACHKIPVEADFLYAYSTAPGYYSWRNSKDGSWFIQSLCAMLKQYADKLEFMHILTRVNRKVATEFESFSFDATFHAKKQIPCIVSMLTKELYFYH
Briefly: Inhibition of recombinant CPP32 (unknown origin) assessed as ratio of irreversible rate constant K3 to dissociation constant of the reversible binding step Ki pre-incubated for 60 mins with Acetyl-Tyr-Val-Ala-Asp-amino-4-methylcoumarin substrate followed by enzyme addition by fluorescence based assay.

For the next assay, the target named is T3, Caspase-6 (Homo sapiens) (UniProt P55212).
T3 sequence (whole entry): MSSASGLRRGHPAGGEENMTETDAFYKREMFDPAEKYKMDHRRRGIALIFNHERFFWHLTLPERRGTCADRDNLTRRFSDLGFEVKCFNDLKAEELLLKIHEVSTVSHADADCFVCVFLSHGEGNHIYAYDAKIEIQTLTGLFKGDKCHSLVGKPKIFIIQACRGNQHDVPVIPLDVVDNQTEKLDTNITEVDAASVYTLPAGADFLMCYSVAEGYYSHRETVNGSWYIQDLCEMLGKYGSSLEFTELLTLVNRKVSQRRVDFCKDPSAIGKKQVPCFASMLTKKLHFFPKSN
Briefly: Inhibition of recombinant MCH2 (unknown origin) assessed as ratio of irreversible rate constant K3 to dissociation constant of the reversible binding step Ki pre-incubated for 60 mins with Acetyl-Tyr-Val-Ala-Asp-amino-4-methylcoumarin substrate followed by enzyme addition by fluorescence based assay.

In another assay the target is Caspase-8 (Homo sapiens) (UniProt Q14790). Briefly: Inhibition of recombinant MCH5 (unknown origin) assessed as ratio of irreversible rate constant K3 to dissociation constant of the reversible binding step Ki pre-incubated for 60 mins with Acetyl-Tyr-Val-Ala-Asp-amino-4-methylcoumarin substrate followed by enzyme addition by fluorescence based assay.
Chain of Caspase-8 (Homo sapiens) (Q14790 217-374 limits assumed): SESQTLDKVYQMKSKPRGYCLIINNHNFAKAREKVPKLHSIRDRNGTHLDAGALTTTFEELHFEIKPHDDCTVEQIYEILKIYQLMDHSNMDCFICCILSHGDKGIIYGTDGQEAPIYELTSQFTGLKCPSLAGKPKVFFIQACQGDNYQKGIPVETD
Chain of Caspase-8 (Homo sapiens) (Q14790 385-479 limits assumed): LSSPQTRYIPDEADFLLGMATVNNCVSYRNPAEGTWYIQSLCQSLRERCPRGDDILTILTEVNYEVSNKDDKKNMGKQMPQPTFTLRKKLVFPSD

For the compound `C[C@H](NC(=O)C(=O)NCc1cccc2ccccc12)C(=O)N[C@@H](CC(=O)O)C(=O)COP(=O)(c1ccccc1)c1ccccc1`, the Ratio on Caspase-1 (Mus musculus) was determined as 191000 M⁻¹ s⁻¹; at Caspase-3 (Homo sapiens), 245000 M⁻¹ s⁻¹; at Caspase-6 (Homo sapiens), 186000 M⁻¹ s⁻¹; at Caspase-8 (Homo sapiens), 82700 M⁻¹ s⁻¹.

On to `C[C@H](NC(=O)C(=O)NC12CC3CC(CC(C3)C1)C2)C(=O)N[C@@H](CC(=O)O)C(=O)COC(=O)c1c(Cl)cccc1Cl`, for which the Ratio at Caspase-1 (Mus musculus) is 46000 to 126000 M⁻¹ s⁻¹; on Caspase-3 (Homo sapiens), 20500 to 165000 M⁻¹ s⁻¹; on Caspase-6 (Homo sapiens) it was 21100 to 143000 M⁻¹ s⁻¹; at Caspase-8 (Homo sapiens), 18700 to 92600 M⁻¹ s⁻¹.

As to `CC(C)[C@H](NC(=O)C(=O)Nc1ccccc1F)C(=O)N[C@@H](CC(=O)O)C(=O)COc1c(F)c(F)cc(F)c1F`, the Ratio stood at 58500 M⁻¹ s⁻¹ on Caspase-1 (Mus musculus), 5560 M⁻¹ s⁻¹ on Caspase-3 (Homo sapiens), 11200 M⁻¹ s⁻¹ at Caspase-6 (Homo sapiens) and 49600 M⁻¹ s⁻¹ at Caspase-8 (Homo sapiens).

In the case of `C[C@H](NC(=O)C(=O)Nc1ccccc1-c1ccccc1)C(=O)N[C@@H](CC(=O)O)C(=O)COc1ccccc1F`, the Ratio on Caspase-1 (Mus musculus) is 167000 M⁻¹ s⁻¹; on Caspase-3 (Homo sapiens), 55600 M⁻¹ s⁻¹; on Caspase-6 (Homo sapiens), 35000 M⁻¹ s⁻¹; at Caspase-8 (Homo sapiens) it was 37800 M⁻¹ s⁻¹.

On to `CC(C)[C@H](NC(=O)C(=O)Nc1cccc2ccccc12)C(=O)N[C@@H](CC(=O)O)C(=O)COc1c(-c2ccccc2)oc2ccccc2c1=O`, for which the Ratio was 82100 M⁻¹ s⁻¹ at Caspase-1 (Mus musculus), 43600 M⁻¹ s⁻¹ at Caspase-3 (Homo sapiens), 0 M⁻¹ s⁻¹ on Caspase-6 (Homo sapiens) and 0 M⁻¹ s⁻¹ at Caspase-8 (Homo sapiens).

With `C[C@H](NC(=O)C(=O)NC12CC3CC(CC(C3)C1)C2)C(=O)N[C@@H](CC(=O)O)C(=O)COP(=O)(c1ccccc1)c1ccccc1`, the Ratio at Caspase-1 (Mus musculus) lay in the range of 27600 to 242000 M⁻¹ s⁻¹; at Caspase-3 (Homo sapiens), 149000 to 243000 M⁻¹ s⁻¹; on Caspase-6 (Homo sapiens), 124000 to 445000 M⁻¹ s⁻¹; on Caspase-8 (Homo sapiens), 50400 to 643000 M⁻¹ s⁻¹.

For the compound `C[C@H](NC(=O)C(=O)Nc1ccccc1-c1ccccc1)C(=O)N[C@@H](CC(=O)O)C(=O)COC(=O)c1c(Cl)cccc1Cl`, the Ratio on Caspase-1 (Mus musculus) worked out at 259000 M⁻¹ s⁻¹; at Caspase-3 (Homo sapiens) it was 388000 M⁻¹ s⁻¹; on Caspase-6 (Homo sapiens) it was 219000 M⁻¹ s⁻¹; at Caspase-8 (Homo sapiens), 125000 M⁻¹ s⁻¹.

As to `CC(C)[C@H](NC(=O)C(=O)Nc1ccccc1I)C(=O)N[C@@H](CC(=O)O)C(=O)COc1c(F)c(F)cc(F)c1F`, the Ratio at Caspase-1 (Mus musculus) was 1.26e+06 M⁻¹ s⁻¹; on Caspase-3 (Homo sapiens) it was 42300 M⁻¹ s⁻¹; at Caspase-6 (Homo sapiens) it was 137000 M⁻¹ s⁻¹; on Caspase-8 (Homo sapiens) it was 1.03e+06 M⁻¹ s⁻¹.

For `C[C@H](NC(=O)C(=O)Nc1cc(C(F)(F)F)ccc1N1CCCC1)C(=O)N[C@@H](CC(=O)O)C(=O)COP(=O)(c1ccccc1)c1ccccc1`, the Ratio at Caspase-1 (Mus musculus) was determined as 1.5e+06 M⁻¹ s⁻¹; on Caspase-3 (Homo sapiens) it was 78600 M⁻¹ s⁻¹; on Caspase-6 (Homo sapiens) it was 202000 M⁻¹ s⁻¹; at Caspase-8 (Homo sapiens), 933000 M⁻¹ s⁻¹.

Regarding `C[C@H](NC(=O)C(=O)Nc1cccc2c1CCCC2)C(=O)N[C@@H](CC(=O)O)C(=O)COP(=O)(c1ccccc1)c1ccccc1`, the Ratio is 315000 to 905000 M⁻¹ s⁻¹ on Caspase-1 (Mus musculus), 139000 to 157000 M⁻¹ s⁻¹ at Caspase-3 (Homo sapiens), 120000 to 132000 M⁻¹ s⁻¹ on Caspase-6 (Homo sapiens) and 71800 to 1.15e+06 M⁻¹ s⁻¹ at Caspase-8 (Homo sapiens).

For the compound `CC(C)[C@H](NC(=O)C(=O)NC(c1ccccc1)c1ccccc1)C(=O)N[C@@H](CC(=O)O)C(=O)COc1c(F)c(F)cc(F)c1F`, the Ratio worked out at 201000 M⁻¹ s⁻¹ at Caspase-1 (Mus musculus), 5380 M⁻¹ s⁻¹ at Caspase-3 (Homo sapiens), 1430 M⁻¹ s⁻¹ at Caspase-6 (Homo sapiens) and 48600 M⁻¹ s⁻¹ on Caspase-8 (Homo sapiens).

Consider `CC(C)[C@H](NC(=O)C(=O)Nc1ccccc1C(C)(C)C)C(=O)N[C@@H](CC(=O)O)C(=O)COc1c(F)c(F)cc(F)c1F`, for which the Ratio at Caspase-1 (Mus musculus) came out at 2.05e+06 M⁻¹ s⁻¹; at Caspase-3 (Homo sapiens), 27700 M⁻¹ s⁻¹; on Caspase-6 (Homo sapiens), 112000 M⁻¹ s⁻¹; at Caspase-8 (Homo sapiens), 1.16e+06 M⁻¹ s⁻¹.
